Key:
[1] = Reduction in H3K9me2 level in human MDA-MB-231 cells incubated for 48 hrs by ChIP assay; format: functional, cell-based; conditions: MDA-MB-231, 48 h
in vivo = conditions: CD-1, mouse, po, 100 mg/kg
MCF7 = experiment: Anticancer activity against human MCF7 cells assessed as cell growth inhibition measured after 48 hrs by CCK-8 assay; format: functional
MDA-MB-231 = experiment: Anticancer activity against human MDA-MB-231 cells assessed as cell growth inhibition measured after 48 hrs by CCK-8 assay; format: functional
NCI-H1299 = experiment: Anticancer activity against human NCI-H1299 cells assessed as cell growth inhibition measured after 48 hrs by CCK-8 assay; format: functional
A549 = experiment: Anticancer activity against human A549 cells assessed as cell growth inhibition measured after 48 hrs by CCK-8 assay; format: functional
HL-60 [2] = experiment: Anticancer activity against human HL-60 cells assessed as cell growth inhibition measured after 7 days by WST-8 assay; format: functional; conditions: HL-60, 168 h, time 7 day
K562 = experiment: Anticancer activity against human K562 cells assessed as cell growth inhibition measured after 7 days by WST-8 assay; format: functional; conditions: K562, 168 h, time 7 day
SKM-1 = experiment: Anticancer activity against human SKM-1 cells assessed as cell growth inhibition measured after 7 days by WST-8 assay; format: functional; conditions: SKM-1, 168 h, time 7 day
[3] = Anticancer activity against human MOLM16 cells assessed as cell growth inhibition measured after 7 days by WST-8 assay; format: functional, MOLM-16; conditions: MOLM16, 168 h, time 7 day
[4] = biological target: Menin/Histone-lysine N-methyltransferase MLL (Homo sapiens, UniProt O00255+Q03164); experiment: Inhibition of menin (unknown origin)/MLL (unknown origin) protein-protein interaction by fluorescence polarization assay
MV4-11 [5] = experiment: Anticancer activity against human MV4-11 cells harboring MLL-AF4 fusion protein assessed as cell growth inhibition measured after 7 days by WST-8 assay; format: functional; conditions: MV4-11, 168 h, pooled result: one value given for 6 cell lines, strains, targets or settings, time 7 day
PBMC [6] = experiment: Anticancer activity against mouse PBMC cells harboring NUP98-NSD1 fusion protein assessed as cell growth inhibition measured after 7 days by MTT assay; format: functional; conditions: 168 h, time 7 day
PBMC [7] = experiment: Anticancer activity against mouse PBMC cells harboring NUP98-NSD1 fusion protein assessed as cell growth inhibition measured after 3 days by MTT assay; format: functional; conditions: 72 h, time 3 day
HL-60 [8] = experiment: Anticancer activity against human HL-60 cells assessed as cell growth inhibition; format: functional
MV4-11 [9] = experiment: Anticancer activity against human MV4-11 cells assessed as cell growth inhibition; format: functional
[10] = Selectivity index, ratio of GI50 for human MV4-11 cells harboring MLL-AF4 fusion protein to ratio of GI50 for human HL-60 cells; format: functional
[11] = biological target: Histone-lysine N-methyltransferase EZH2 (Homo sapiens, UniProt Q15910); experiment: Inhibition of EZH2 (unknown origin)

Menin/Histone-lysine N-methyltransferase MLL, sequence (O00255 whole entry, the tested form may be a part): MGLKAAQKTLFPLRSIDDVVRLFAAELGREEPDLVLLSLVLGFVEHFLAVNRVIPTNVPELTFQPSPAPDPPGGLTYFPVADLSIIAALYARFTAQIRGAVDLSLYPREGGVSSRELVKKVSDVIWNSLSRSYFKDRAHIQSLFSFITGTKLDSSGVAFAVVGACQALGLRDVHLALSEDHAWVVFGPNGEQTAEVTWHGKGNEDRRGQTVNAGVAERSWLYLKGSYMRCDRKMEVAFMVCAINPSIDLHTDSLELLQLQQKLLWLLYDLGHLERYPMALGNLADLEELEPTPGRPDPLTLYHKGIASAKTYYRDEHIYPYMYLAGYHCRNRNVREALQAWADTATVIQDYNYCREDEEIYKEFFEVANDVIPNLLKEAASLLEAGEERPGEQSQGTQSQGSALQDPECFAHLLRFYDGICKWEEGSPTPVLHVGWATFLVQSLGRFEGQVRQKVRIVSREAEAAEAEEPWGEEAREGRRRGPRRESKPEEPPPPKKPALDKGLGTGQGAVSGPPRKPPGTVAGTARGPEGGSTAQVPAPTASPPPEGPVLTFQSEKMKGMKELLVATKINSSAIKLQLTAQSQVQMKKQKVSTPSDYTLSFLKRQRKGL
Menin/Histone-lysine N-methyltransferase MLL, sequence (Q03164 1-2718 limits assumed): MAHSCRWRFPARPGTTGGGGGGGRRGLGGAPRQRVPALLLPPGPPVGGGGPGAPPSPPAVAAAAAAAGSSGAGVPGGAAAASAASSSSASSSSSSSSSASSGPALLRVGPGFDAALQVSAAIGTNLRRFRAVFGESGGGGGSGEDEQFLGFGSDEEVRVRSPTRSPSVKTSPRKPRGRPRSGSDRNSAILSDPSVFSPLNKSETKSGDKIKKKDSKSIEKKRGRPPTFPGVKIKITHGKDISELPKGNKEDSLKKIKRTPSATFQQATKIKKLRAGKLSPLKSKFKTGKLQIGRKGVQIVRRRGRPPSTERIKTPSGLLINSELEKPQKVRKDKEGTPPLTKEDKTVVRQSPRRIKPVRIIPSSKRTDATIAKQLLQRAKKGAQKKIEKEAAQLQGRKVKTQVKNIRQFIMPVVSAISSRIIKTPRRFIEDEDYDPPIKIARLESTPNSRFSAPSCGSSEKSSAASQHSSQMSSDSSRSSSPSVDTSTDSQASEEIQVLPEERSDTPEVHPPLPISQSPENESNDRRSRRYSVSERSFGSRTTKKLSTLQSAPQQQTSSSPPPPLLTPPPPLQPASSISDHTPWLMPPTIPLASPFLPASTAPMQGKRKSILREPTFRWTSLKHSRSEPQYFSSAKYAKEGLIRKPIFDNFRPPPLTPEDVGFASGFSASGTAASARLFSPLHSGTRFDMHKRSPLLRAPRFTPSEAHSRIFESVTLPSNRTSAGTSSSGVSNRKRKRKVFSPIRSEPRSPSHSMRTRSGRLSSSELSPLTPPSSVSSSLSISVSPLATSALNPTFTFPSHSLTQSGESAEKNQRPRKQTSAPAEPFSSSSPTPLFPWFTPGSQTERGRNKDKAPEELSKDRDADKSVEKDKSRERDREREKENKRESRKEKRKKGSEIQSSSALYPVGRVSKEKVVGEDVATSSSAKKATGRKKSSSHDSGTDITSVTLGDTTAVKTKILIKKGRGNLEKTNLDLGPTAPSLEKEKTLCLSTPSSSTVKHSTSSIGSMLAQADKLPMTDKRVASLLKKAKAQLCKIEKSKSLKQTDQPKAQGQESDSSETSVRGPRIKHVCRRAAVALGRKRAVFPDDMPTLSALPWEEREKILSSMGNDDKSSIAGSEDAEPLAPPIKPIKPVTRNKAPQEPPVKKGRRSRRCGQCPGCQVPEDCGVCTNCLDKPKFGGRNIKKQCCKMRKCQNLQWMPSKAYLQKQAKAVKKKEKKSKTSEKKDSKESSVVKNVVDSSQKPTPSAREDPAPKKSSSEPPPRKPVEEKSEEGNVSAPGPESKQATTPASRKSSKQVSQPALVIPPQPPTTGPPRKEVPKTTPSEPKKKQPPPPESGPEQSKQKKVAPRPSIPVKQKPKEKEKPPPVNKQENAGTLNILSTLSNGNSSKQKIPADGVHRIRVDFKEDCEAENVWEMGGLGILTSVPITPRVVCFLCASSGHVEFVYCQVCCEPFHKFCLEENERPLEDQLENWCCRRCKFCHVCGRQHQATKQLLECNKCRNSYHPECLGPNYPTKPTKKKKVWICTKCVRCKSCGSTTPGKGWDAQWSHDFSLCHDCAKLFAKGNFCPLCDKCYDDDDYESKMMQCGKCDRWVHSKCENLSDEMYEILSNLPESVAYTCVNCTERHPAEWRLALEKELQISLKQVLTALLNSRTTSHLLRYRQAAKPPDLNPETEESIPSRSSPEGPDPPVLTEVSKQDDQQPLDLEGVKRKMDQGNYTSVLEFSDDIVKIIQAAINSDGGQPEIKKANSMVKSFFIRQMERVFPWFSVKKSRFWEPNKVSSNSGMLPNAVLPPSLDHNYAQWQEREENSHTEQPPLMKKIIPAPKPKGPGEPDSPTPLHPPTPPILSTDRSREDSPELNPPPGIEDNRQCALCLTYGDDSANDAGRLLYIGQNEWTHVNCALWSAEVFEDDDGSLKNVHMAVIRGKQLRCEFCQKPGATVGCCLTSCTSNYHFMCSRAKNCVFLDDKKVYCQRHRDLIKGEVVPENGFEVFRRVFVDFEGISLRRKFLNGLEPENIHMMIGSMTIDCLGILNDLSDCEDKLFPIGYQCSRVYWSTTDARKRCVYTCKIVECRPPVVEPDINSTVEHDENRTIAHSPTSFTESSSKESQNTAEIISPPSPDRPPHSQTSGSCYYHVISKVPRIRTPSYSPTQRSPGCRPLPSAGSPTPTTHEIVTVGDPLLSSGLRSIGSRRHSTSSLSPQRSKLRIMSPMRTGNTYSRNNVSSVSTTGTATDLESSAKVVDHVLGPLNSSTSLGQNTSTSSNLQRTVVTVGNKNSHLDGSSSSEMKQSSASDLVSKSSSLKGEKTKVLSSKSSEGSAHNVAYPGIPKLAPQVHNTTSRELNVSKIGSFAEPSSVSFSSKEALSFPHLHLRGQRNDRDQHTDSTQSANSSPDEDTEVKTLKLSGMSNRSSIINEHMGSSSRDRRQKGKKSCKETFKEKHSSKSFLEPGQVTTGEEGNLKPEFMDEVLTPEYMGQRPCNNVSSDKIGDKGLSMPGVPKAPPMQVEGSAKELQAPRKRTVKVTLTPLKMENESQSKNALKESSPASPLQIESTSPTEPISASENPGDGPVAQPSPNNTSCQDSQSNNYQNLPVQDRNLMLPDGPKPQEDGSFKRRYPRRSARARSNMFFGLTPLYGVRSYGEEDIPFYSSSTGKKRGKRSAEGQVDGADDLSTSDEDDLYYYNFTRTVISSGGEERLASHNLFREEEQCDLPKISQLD
Menin/Histone-lysine N-methyltransferase MLL, sequence (Q03164 2719-3969 limits assumed): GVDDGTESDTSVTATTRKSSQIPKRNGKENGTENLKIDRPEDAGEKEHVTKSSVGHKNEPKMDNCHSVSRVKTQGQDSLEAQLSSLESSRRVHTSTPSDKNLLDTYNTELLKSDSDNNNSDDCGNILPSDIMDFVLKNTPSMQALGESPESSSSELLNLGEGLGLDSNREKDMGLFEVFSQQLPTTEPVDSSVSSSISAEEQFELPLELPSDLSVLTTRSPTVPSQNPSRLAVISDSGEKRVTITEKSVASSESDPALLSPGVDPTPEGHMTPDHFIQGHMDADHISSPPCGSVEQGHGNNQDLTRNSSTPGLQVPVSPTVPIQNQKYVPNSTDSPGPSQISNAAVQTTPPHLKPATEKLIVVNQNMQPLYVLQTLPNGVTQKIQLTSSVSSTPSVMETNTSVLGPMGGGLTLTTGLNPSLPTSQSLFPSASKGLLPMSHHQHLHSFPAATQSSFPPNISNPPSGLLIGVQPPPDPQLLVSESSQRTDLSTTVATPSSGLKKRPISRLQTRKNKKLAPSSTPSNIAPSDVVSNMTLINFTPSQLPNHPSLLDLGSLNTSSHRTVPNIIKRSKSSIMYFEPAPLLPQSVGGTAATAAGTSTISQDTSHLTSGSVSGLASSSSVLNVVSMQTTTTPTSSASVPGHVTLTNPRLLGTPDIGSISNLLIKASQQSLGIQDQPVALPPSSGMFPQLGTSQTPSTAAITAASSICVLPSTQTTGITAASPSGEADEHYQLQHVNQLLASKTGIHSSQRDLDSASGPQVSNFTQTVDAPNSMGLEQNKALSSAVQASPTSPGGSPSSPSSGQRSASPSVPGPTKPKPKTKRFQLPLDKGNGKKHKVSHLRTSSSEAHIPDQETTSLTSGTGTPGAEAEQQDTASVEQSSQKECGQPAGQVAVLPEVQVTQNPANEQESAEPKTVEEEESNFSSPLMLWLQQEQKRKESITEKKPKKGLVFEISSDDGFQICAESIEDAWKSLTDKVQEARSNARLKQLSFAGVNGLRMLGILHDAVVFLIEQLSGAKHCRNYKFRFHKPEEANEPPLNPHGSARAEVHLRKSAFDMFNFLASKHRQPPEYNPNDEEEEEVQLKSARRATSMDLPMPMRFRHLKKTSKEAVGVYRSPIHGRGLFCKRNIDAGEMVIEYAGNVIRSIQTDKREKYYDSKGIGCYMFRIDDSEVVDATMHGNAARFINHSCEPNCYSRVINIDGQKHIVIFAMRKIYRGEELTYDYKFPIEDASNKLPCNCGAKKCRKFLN

`COc1cc2c(NC3CCN(C(C)C)CC3)nc(C3CCCCC3)nc2cc1OCCCN1CCCC1` showed an IC50 [1] of 81 nM.
With `CC1(C)CN=C(N2CCN(c3ncnc4sc5c(c34)CCCC5)CC2)S1` the bioavailability (in vivo) was 77%.
With `O=C(CCl)Nc1ccc(S(=O)(=O)c2ccc(NC(=O)CCl)cc2)cc1` the GI50 (MCF7) was 413 nM, the GI50 (MDA-MB-231) was 597 nM and the GI50 (NCI-H1299) was 684 nM. It also gave a GI50 (A549) of 702 nM.
Work on `COC(=O)N[C@H]1CCC[C@@H]1[C@](C#N)(c1cccc(F)c1)C1CCN(CC2CN(c3ccc(S(=O)(=O)C4CN(C(=O)/C=C/CN(C)C)C4)cc3)C2)CC1` yielded a GI50 (HL-60 [2]) of 900 nM, a GI50 (K562) of 900 nM and a GI50 (SKM-1) of 900 nM. The GI50 [3] was 900 nM, the IC50 [4] was 3 nM and the GI50 (MV4-11 [5]) was 2.3 nM.
For `CC1CN1c1cc(O)c2nc(N)sc2c1` (stereo unspecified), the GI50 (PBMC [6]) was 870 nM and the GI50 (PBMC [7]) was 1300 nM.
Work on `C=CC(=O)N1CC(S(=O)(=O)c2ccc(N3CC(CN4CCC([C@@](C#N)(c5cccc(F)c5)[C@H]5CCC[C@@H]5NC(=O)OC)CC4)C3)cc2)C1` yielded a GI50 (HL-60 [8]) of 3200 nM, a GI50 (MV4-11 [9]) of 6 nM and a RatioGI50 [10] greater than 500.
`COC(=O)N[C@H]1CCC[C@@H]1[C@](C#N)(c1cccc(F)c1)C1CCN(CC2CN(c3ccc(S(=O)(=O)C4CCC4)cc3)C2)CC1` showed a GI50 (MV4-11 [9]) of 210 nM and an IC50 [4] of 7 nM.
`C=CC(=O)Nc1cc(-c2ccc(N3CCNCC3)cc2)cc(C(=O)NCc2c(CC)cc(C)[nH]c2=O)c1C` gave an IC50 [11] of 47 nM.
`COc1cc2nc(N3CCCN(C)CC3)nc(NC3CCN(Cc4ccccc4)CC3)c2cc1OC` showed an IC50 [1] of 500 nM.
